Laboratory results reported in PubChem BioAssay AID248 (DTP/NCI, 2004).
Inconclusive results and toxic doses are left out. Rule as the data show it: active = T/C of 150% or more; inactive = T/C below 125%.

Test system: L1210 leukemia ip in BDF1 mice, survival T/C
Assay: NCI In Vivo Anticancer Drug Screen. Data for tumor model L1210 Leukemia (intraperitoneal) in B6D2F1 (BDF1) mice
Details: endpoint: mean survival time, higher = longer survival
How it was run: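 Mice bearing the transplanted tumor received compound or vehicle. Survival of the treated group was divided by that of the vehicle-treated control group to give the ratio.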

[1] = dose: 100.0 mg/kg/injection, schedule: Q04DX003 (ip), vehicle: saline with Tween-80
[2] = dose: 200.0 mg/kg/injection, schedule: Q04DX003 (ip), vehicle: saline with Tween-80
[3] = dose: 400.0 mg/kg/injection, schedule: Q04DX003 (ip), vehicle: saline with Tween-80
[4] = dose: 50.0 mg/kg/injection, schedule: Q01DX009 (ip), vehicle: Klucel (hydroxypropylcellulose) (HPC)
[5] = dose: 100.0 mg/kg/injection, schedule: Q01DX001 (ip), vehicle: saline
[6] = dose: 200.0 mg/kg/injection, schedule: Q01DX001 (ip), vehicle: saline
[7] = dose: 400.0 mg/kg/injection, schedule: Q01DX001 (ip), vehicle: saline
[8] = dose: 100.0 mg/kg/injection, schedule: Q01DX009 (ip), vehicle: Klucel (hydroxypropylcellulose) (HPC)
[9] = dose: 200.0 mg/kg/injection, schedule: Q01DX009 (ip), vehicle: Klucel (hydroxypropylcellulose) (HPC)
[10] = dose: 400.0 mg/kg/injection, schedule: Q01DX009 (ip), vehicle: Klucel (hydroxypropylcellulose) (HPC)
[11] = dose: 50.0 mg/kg/injection, schedule: Q01DX001 (ip), vehicle: carboxymethylcellulose (CMC)
[12] = dose: 100.0 mg/kg/injection, schedule: Q04DX003 (ip), vehicle: Klucel (hydroxypropylcellulose) (HPC)
[13] = dose: 200.0 mg/kg/injection, schedule: Q04DX003 (ip), vehicle: Klucel (hydroxypropylcellulose) (HPC)
[14] = dose: 400.0 mg/kg/injection, schedule: Q04DX003 (ip), vehicle: Klucel (hydroxypropylcellulose) (HPC)

Measured: T/C

CC(=O)[O][Sn]([CH2]c1ccccc1)([CH2]c1ccccc1)[CH2]c1ccccc1
inactive: dose: 0.5 mg/kg/injection, schedule: Q04DX003 (ip), vehicle: saline with Tween-80 97 % of control | dose: 1.0 mg/kg/injection, schedule: Q04DX003 (ip), vehicle: saline with Tween-80 96 % of control | dose: 3.0 mg/kg/injection, schedule: Q04DX003 (ip), vehicle: saline with Tween-80 99 % of control | dose: 12.0 mg/kg/injection, schedule: Q01DX009 (ip), vehicle: saline with Tween-80 97 % of control | dose: 25.0 mg/kg/injection, schedule: Q01DX009 (ip), vehicle: saline with Tween-80 100 % of control

[Cl][Pt+2][Cl].[NH-]C1CCC1.[NH-]C1CCC1
inactive: dose: 1.0 mg/kg/injection, schedule: Q01DX001 (ip), vehicle: saline with Tween-80 95 % of control | dose: 1.0 mg/kg/injection, schedule: Q01DX009 (ip), vehicle: saline with Tween-80 108 % of control | dose: 2.0 mg/kg/injection, schedule: Q01DX001 (ip), vehicle: saline with Tween-80 98 % of control | dose: 2.0 mg/kg/injection, schedule: Q01DX009 (ip), vehicle: saline with Tween-80 115 % of control | dose: 4.0 mg/kg/injection, schedule: Q01DX001 (ip), vehicle: saline with Tween-80 109 % of control | dose: 5.0 mg/kg/injection, schedule: Q04DX003 (ip), vehicle: saline 110 % of control | dose: 6.25 mg/kg/injection, schedule: Q04DX003 (ip), vehicle: Klucel (hydroxypropylcellulose) (HPC) 103 % of control | dose: 6.25 mg/kg/injection, schedule: Q04DX003 (ip), vehicle: saline with Tween-80 116 % of control | dose: 10.0 mg/kg/injection, schedule: Q04DX003 (ip), vehicle: saline 123 % of control | dose: 12.5 mg/kg/injection, schedule: Q04DX003 (ip), vehicle: Klucel (hydroxypropylcellulose) (HPC) 106 % of control | dose: 25.0 mg/kg/injection, schedule: Q04DX003 (ip), vehicle: Klucel (hydroxypropylcellulose) (HPC) 110 % of control | dose: 32.0 mg/kg/injection, schedule: Q01DX009 (ip), vehicle: saline with Tween-80 95 % of control | dose: 64.0 mg/kg/injection, schedule: Q01DX001 (ip), vehicle: saline with Tween-80 118 % of control | dose: 80.0 mg/kg/injection, schedule: Q04DX003 (ip), vehicle: saline 110 % of control
active: dose: 8.0 mg/kg/injection, schedule: Q01DX009 (ip), vehicle: saline with Tween-80 157 % of control | dose: 16.0 mg/kg/injection, schedule: Q01DX009 (ip), vehicle: saline with Tween-80 214 % of control | dose: 32.0 mg/kg/injection, schedule: Q01DX001 (ip), vehicle: saline with Tween-80 154 % of control | dose: 40.0 mg/kg/injection, schedule: Q04DX003 (ip), vehicle: saline 152 % of control | dose: 50.0 mg/kg/injection, schedule: Q04DX003 (ip), vehicle: saline with Tween-80 195 % of control | [1] 154 % of control

O=C(Nc1ccc(C(=O)Cl)cc1)OCCCl
inactive: [1] 96 % of control | [2] 96 % of control | [3] 96 % of control

O=C1C=CC(=Nc2cc(Cl)c(O)c(Cl)c2)C(Cl)=C1
inactive: dose: 12.5 mg/kg/injection, schedule: Q01DX009 (ip), vehicle: Klucel (hydroxypropylcellulose) (HPC) 96 % of control | dose: 25.0 mg/kg/injection, schedule: Q01DX009 (ip), vehicle: Klucel (hydroxypropylcellulose) (HPC) 96 % of control | [4] 92 % of control

O=CNNCc1c[nH]c(=O)[nH]c1=O
inactive: dose: 50.0 mg/kg/injection, schedule: Q01DX001 (ip), vehicle: saline 96 % of control | [5] 96 % of control | [6] 96 % of control | [7] 98 % of control

O=C(Nc1cccc2ccccc12)c1ccccc1F
inactive: [8] 95 % of control | [9] 92 % of control | [10] 104 % of control

CN(CCC#N)c1ccc(/C=C(\C#N)c2ccc(Br)cc2)cc1
inactive: [8] 94 % of control | [9] 94 % of control | [10] 96 % of control

C/C(=C(/SS/C(C(=O)O)=C(/C)c1cccc(O)c1)C(=O)O)c1cccc(O)c1
inactive: [5] 97 % of control | [6] 97 % of control | [7] 97 % of control

FC(F)(F)c1nn[nH]n1
inactive: [1] 101 % of control | [2] 108 % of control | [3] 103 % of control

CC(C)C1CCC2(CC1)CC(=O)N(CCC[N+](C)(C)C)C(=O)C2
inactive: [11] 96 % of control

COC(=O)c1cc(C)c(Br)c(N)c1
inactive: [8] 101 % of control | [12] 100 % of control | [9] 101 % of control | [13] 92 % of control | [10] 98 % of control | [14] 95 % of control

N=c1ncn(Cc2ccccc2)c2nc[nH]c12
inactive: [8] 91 % of control | [9] 101 % of control

O=C(OC1(c2ccccc2)CC2CC1c1ccccc12)c1ccc([N+](=O)[O-])cc1 (centres undefined)
inactive: [11] 88 % of control | dose: 100.0 mg/kg/injection, schedule: Q01DX001 (ip), vehicle: carboxymethylcellulose (CMC) 95 % of control | dose: 200.0 mg/kg/injection, schedule: Q01DX001 (ip), vehicle: carboxymethylcellulose (CMC) 95 % of control

CC(C)C(CN)(CCN(C)C)c1cccc2ccccc12 (centres undefined)
inactive: [1] 88 % of control

O=C(Nc1ccc(Cl)cc1Cl)c1cc(Cl)cc(Cl)c1Br
inactive: [1] 101 % of control | [2] 92 % of control | [3] 92 % of control

O=C1c2ccccc2C(=O)N1N(c1ccccc1)c1ccccc1
inactive: [4] 108 % of control | [12] 95 % of control | [9] 106 % of control | [13] 97 % of control | [10] 103 % of control | [14] 109 % of control

O=C(O)CCC(=O)CC[N+](=O)[O-]
inactive: dose: 75.0 mg/kg/injection, schedule: Q01DX001 (ip), vehicle: saline 94 % of control | dose: 150.0 mg/kg/injection, schedule: Q01DX001 (ip), vehicle: saline 97 % of control

NC1=NN(c2c(Cl)cc(Cl)cc2Cl)C(=O)C1
inactive: [5] 96 % of control | [6] 94 % of control | [7] 100 % of control

CCCCCCCCC(=O)N1C(C)CCCC1C (centres undefined)
inactive: dose: 100.0 mg/kg/injection, schedule: Q04DX002 (ip), vehicle: saline 111 % of control | dose: 200.0 mg/kg/injection, schedule: Q04DX002 (ip), vehicle: saline 114 % of control | dose: 400.0 mg/kg/injection, schedule: Q04DX002 (ip), vehicle: saline 100 % of control

CN(C=O)C(=S)[S-].CN(C=O)C(=S)[S-].CN(C=O)C(=S)[S-].O=C(Nc1ccc(S(=O)(=O)Nc2ccc(N=Nc3ccc4nc([S-])sc4c3)cc2)cc1)C(N1CC1)(N1CC1)N1CC1.[Pd]
inactive: dose: 6.25 mg/kg/injection, schedule: Q01DX009 (ip), vehicle: saline 109 % of control | dose: 6.25 mg/kg/injection, schedule: Q04DX003 (ip), vehicle: saline 108 % of control | dose: 12.5 mg/kg/injection, schedule: Q01DX009 (ip), vehicle: saline 101 % of control | dose: 12.5 mg/kg/injection, schedule: Q04DX003 (ip), vehicle: saline 106 % of control | dose: 25.0 mg/kg/injection, schedule: Q01DX009 (ip), vehicle: saline 98 % of control | dose: 25.0 mg/kg/injection, schedule: Q04DX003 (ip), vehicle: saline 103 % of control

CSc1ccc(N2C(=O)C3C(C2=O)C2(Cl)C(Cl)=C(Cl)C3(Cl)C2(Cl)Cl)cc1 (centres undefined)
inactive: [8] 105 % of control | [12] 101 % of control | [9] 100 % of control | [13] 104 % of control | [10] 103 % of control | [14] 98 % of control

O=CC1(C(O)C2SCCCS2)SCCCS1 (centres undefined)
inactive: dose: 100.0 mg/kg/injection, schedule: Q01DX001 (ip), vehicle: other 113 % of control | dose: 200.0 mg/kg/injection, schedule: Q01DX001 (ip), vehicle: other 101 % of control | dose: 400.0 mg/kg/injection, schedule: Q01DX001 (ip), vehicle: other 97 % of control

CC(C)=NNC(=O)CC(=O)NN=C(C)C
inactive: dose: 100.0 mg/kg/injection, schedule: Q04DX003 (ip), vehicle: saline sonified 89 % of control | dose: 200.0 mg/kg/injection, schedule: Q04DX003 (ip), vehicle: saline sonified 87 % of control | dose: 400.0 mg/kg/injection, schedule: Q04DX003 (ip), vehicle: saline sonified 94 % of control

CSc1ncnc2n[nH]c(Br)c12
inactive: dose: 100.0 mg/kg/injection, schedule: Q01DX005 (ip), vehicle: saline 93 % of control

CCOC(=O)c1cc(C)n(-c2ccc(-c3ccc(-n4c(C)cc(C(=O)OCC)c4C)c(C)c3)cc2C)c1C
inactive: [12] 98 % of control | [13] 101 % of control | [14] 93 % of control
